These results are taken from publication PMC11258351, “PK/PD investigation of antiviral host matriptase/TMPRSS2 inhibitors in cell models” (Scientific Reports, 2024).

Data set [1] relates to monkey CYP1A2. On the set-up: method as in PMID 35448654. The following applies: cited from earlier work.
Data set [2] concerns the target T1, CYP1A2 (Homo sapiens, UniProt P05177).
T1 sequence (P05177 1-516): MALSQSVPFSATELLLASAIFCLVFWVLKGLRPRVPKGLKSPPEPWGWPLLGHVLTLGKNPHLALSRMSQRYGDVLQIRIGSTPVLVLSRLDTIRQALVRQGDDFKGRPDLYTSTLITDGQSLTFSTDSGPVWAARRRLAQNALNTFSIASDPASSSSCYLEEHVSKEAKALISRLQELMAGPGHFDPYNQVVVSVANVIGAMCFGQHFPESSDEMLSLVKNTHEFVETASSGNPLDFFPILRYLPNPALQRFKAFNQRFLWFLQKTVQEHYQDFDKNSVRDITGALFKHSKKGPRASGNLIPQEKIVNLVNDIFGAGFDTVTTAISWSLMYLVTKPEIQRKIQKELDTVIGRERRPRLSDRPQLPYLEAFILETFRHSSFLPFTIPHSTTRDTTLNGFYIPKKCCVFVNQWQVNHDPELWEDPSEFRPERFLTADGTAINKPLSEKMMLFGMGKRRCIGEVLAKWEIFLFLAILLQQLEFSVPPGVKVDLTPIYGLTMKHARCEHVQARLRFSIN
Set-up: method as in PMID 34915414. The following applies: earlier study; cited from earlier work.

The target in data set [3] is CYP3A4 (Homo sapiens, UniProt P08684). Nature of the data set: Fluorometric CYP3A4 activity assay in human hepatic microsomes. The following applies: for Effect on CYP3A4 enzyme activity: human liver microsomes, 10, 25 and 50 µM; for Effect on CYP3A4 enzyme activity at the lowest applied concentration: human liver microsomes, lowest applied concentration (10 µM).
Chain of CYP3A4 (P08684 whole entry): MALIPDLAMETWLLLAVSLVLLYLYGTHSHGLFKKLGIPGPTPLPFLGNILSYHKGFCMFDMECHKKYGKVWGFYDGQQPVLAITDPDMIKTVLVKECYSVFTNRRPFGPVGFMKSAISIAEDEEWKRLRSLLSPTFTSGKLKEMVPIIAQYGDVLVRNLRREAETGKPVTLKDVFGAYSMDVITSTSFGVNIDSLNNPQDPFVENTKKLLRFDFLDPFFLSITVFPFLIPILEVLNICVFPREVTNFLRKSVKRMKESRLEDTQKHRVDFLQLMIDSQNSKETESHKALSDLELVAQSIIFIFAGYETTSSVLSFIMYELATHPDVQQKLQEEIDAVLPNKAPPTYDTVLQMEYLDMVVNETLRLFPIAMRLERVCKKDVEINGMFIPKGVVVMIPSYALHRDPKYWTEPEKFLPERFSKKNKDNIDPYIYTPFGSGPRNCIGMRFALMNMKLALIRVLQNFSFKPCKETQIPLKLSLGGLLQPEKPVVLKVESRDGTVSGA
The subject of data set [4] is human primary hepatocytes. Briefly: Depletion of inhibitors in human primary hepatocyte suspension (LC-MS/MS). Particulars: for Parent compound retained at the 120-min sampling point / Sampling interval at which significant depletion was first observed: primary human hepatocytes, 10 µM; for Parent compound retained at the 120-min sampling point: % of 0-min concentration, mean ± S.E.M.; for Sampling interval at which significant depletion was first observed: sampling 0-120 min.

Test in data set [5]: as above
Particulars: human, cryopreserved primary human hepatocytes in suspension; for CLint scaled at 10 µM: intrinsic clearance from primary human hepatocytes scaled to whole liver/body weight.

Data set [6] concerns H9N2 IAV strain A/quail/Shantou/782/00. The format is cell-based, influenza A virus. The following applies: MDCK-II cells, 24 h.
Data set [7] relates to primary human hepatocytes. Nature of the data set: Cytotoxicity in primary human hepatocytes. The class given is cell-based. The following applies: 50 µM, 24 h. The procedure: Supplementary Figure S1. Cytotoxicity of MI-463 and MI-1900 at 50 µM for 24 h in primary human hepatocytes. DMSO was applied as solvent control at 0.5% for 24 h.
For data set [8], the system named is A/Hamburg/5/09 (H1N1pdm). The format is cell-based, influenza A virus.
For data set [9], the system named is rat CYP1A2. On the set-up: method as in PMID 35448654. The following applies: cited from earlier work.
Data set [10] has as its target T2, CYP2C9 (Homo sapiens, UniProt P11712). On the set-up: method as in PMID 34915414. The following applies: earlier study; cited from earlier work.
The target of data set [11] is T3, CYP2C19 (Homo sapiens, UniProt P33261). Set-up: method as in PMID 34915414. The following applies: earlier study; cited from earlier work.
T3 sequence (P33261 whole entry): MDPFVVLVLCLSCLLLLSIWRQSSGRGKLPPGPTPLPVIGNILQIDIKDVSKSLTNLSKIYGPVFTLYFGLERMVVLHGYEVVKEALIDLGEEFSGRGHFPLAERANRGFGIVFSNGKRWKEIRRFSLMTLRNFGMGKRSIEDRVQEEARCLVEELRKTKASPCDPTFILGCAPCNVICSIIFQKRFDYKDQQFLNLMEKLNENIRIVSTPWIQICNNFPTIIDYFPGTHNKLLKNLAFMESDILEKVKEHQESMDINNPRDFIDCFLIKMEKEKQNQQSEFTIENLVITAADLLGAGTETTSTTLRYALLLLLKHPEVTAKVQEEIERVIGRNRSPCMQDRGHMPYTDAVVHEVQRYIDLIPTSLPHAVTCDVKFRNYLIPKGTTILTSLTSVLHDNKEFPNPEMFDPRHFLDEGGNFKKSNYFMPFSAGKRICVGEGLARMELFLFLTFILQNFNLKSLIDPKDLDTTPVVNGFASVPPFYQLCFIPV
Data set [12] deals with TMPRSS2. Set-up: method as in PMID 35635944. Particulars: cited from earlier work.
Data set [13] addresses matriptase. Set-up: method as in PMID 35635944. Particulars: cited from earlier work.
Data set [14] in a line: Prediction of in vivo human PK parameters from hepatocyte clearance. The class given is in vitro ADME. Particulars: for Classification (extraction type) / Extraction ratio EH: predicted; for Predicted Cl, CLH: predicted from hepatocyte Clint, fu = 1.
In data set [15] the test system is H9N2 IAV strain A/quail/Shantou/782/00. The class given is cell-based, influenza A virus. The following applies: MDCK-II cells.
In data set [16] the target is T4, CYP2D6 (Homo sapiens, UniProt P10635). On the set-up: method as in PMID 34915414. Particulars: earlier study; cited from earlier work.
T4 sequence (P10635 whole entry): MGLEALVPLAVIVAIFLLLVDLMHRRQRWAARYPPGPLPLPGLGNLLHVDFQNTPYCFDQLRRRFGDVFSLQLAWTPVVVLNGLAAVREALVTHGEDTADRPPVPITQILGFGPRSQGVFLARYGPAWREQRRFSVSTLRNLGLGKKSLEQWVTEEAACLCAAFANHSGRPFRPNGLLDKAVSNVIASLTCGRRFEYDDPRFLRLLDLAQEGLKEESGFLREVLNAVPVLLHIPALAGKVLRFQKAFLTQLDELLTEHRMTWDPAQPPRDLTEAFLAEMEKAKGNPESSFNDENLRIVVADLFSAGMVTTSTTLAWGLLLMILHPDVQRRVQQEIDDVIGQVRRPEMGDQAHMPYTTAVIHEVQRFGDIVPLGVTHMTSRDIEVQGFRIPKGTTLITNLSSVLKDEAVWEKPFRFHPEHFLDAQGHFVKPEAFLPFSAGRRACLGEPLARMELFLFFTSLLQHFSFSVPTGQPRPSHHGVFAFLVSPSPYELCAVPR
The subject of data set [17] is cynomolgus monkey hepatocytes. On the set-up: method as in PMID 31391268. Particulars: cited from earlier work.
Data set [18] relates to beagle dog CYP1A2. On the set-up: method as in PMID 35448654. The following applies: cited from earlier work.
Data set [19] has as its target T1, CYP1A2. Briefly: Fluorometric CYP1A2 activity assay in human hepatic microsomes. Particulars: human liver microsomes, protease inhibitors at 50 µM, 15 min 37 °C.
For data set [20], the target named is T2, CYP2C9. Briefly: Fluorometric CYP2C9 activity assay in human hepatic microsomes. The following applies: human liver microsomes, protease inhibitors at 50 µM, 15 min 37 °C. In general terms: Liver microsomes are a subcellular fraction often used to study metabolism.
In data set [21] the target is T4, CYP2D6. Briefly: Fluorometric CYP2D6 activity assay in human hepatic microsomes. Particulars: human liver microsomes; for Inhibition of CYP2D6 activity: protease inhibitors at 50 µM, 15 min 37 °C.
Data set [22] concerns the target T3, CYP2C19. Briefly: Fluorometric CYP2C19 activity assay in human hepatic microsomes. Particulars: human liver microsomes, protease inhibitors at 50 µM, 15 min 37 °C.
The subject of data set [23] is H9N2. The following applies: MDCK-II cells, 20 μM and 50 μM; cited from earlier work.

“And” between values parts separate entries of the source, which are not always exact repeats. Equal values may be shown once. “Also recorded” adds a separate entry of the source. Read-outs that look alike come from different tables or passages of the source.

T2 sequence (P11712 whole entry): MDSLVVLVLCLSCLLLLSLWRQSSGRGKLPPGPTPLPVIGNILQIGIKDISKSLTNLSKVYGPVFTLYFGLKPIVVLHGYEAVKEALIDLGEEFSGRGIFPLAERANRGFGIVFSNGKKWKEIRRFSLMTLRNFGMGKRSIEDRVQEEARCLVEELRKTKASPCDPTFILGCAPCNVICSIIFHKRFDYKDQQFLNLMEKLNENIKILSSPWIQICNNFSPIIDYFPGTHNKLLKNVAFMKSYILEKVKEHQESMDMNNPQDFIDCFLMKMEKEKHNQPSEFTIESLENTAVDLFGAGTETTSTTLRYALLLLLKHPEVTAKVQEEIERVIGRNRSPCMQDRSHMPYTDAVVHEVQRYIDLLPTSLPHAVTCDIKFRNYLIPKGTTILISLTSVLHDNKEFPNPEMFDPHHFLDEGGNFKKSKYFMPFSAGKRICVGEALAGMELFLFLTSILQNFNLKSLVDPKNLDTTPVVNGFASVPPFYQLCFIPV

What is called half-life is the time needed for the level to fall by half in the phase considered. One may read the CLint scaled as the capacity of the preparation to metabolise the compound, expressed as a volume cleared per time. The Ki is a dissociation constant, usually derived from enzyme kinetics or from competition with a known ligand. In the case of `COc1ccc(-c2cccc(S(=O)(=O)N[C@@H](Cc3cccc(C(=N)N)c3)C(=O)N3CCC(NC(=O)NC4CCCCC4)CC3)c2)c(OC)c1` [MI-463], in data set [1], the “Inhibition of monkey CYP1A2” value is listed as “significant inhibition”. The “Inhibition of CYP1A2 activity” value in [2] is “No significant CYP inhibitory potential”. Also, in data set [3], the “Effect on CYP3A4 enzyme activity” value is recorded as “significant inhibitory effect” and the “Effect on CYP3A4 enzyme activity at the lowest applied concentration” value is recorded as “potent inhibitors”. Also, in [4], the “Parent compound retained at the 120-min sampling point” value (“Parent compound retained” for short) was 66.7 ± 5.5% and 66.7%; the “Sampling interval at which significant depletion was first observed” value came to 30 min. Further, in data set [5], the half-life at 10 µM came to 3.57 h and the CLint scaled at 10 µM was found to be 1.28 L/h/kg. In addition, the “H9N2 viral spread / formation of viral foci” value (from here on “H9N2 viral spread / formation”) in data set [6] (MOI 0.01, 20 µM) was “marked reduction of viral spread”. In addition, in data set [6] (MOI 0.01, 50 µM), the “H9N2 viral spread / formation” value was “fully prevented formation of viral foci; also recorded: fully preventing the formation of H9N2 viral foci”. Also, the “Cytotoxicity in primary human hepatocytes” value in data set [7] is on record as “No significant differences in cell viabilities; also recorded: lack of cytotoxicity”. Further, the “Reduction of H1N1 viral titers” value in data set [8] is listed as 0.95–1.34 logs. The “Inhibition of rat CYP1A2” value in data set [9] is “significant inhibition”. In addition, the “Inhibition of CYP2C9 activity” value in data set [10] is listed as “No significant CYP inhibitory potential”. For the same compound, the “Inhibition of CYP2C19 activity” value in data set [11] is listed as “No significant CYP inhibitory potential”. In addition, in [12], the Ki is 3 nM. Also, the Ki in data set [13] was 4 nM. Further, in [14], the “Classification (extraction type)” value is reported as “Intermediate”; the “Extraction ratio EH” value is given as 0.37; the “Predicted Cl, CLH” value is given as 7.60. Moreover, the “Reduction of H9N2 viral titers compared to untreated controls” value (from here on “Reduction of H9N2 viral titers”) in data set [15] (20 µM, 24 h) is on record as “approximately 1.4 log”. For the same compound, the “Reduction of H9N2 viral titers” value in [15] (20 µM, 48 h) was determined as 2.1 logs. Further, the “Reduction of H9N2 viral titers” value in data set [15] (50 µM, 24 h) is around 1.8 log. In addition, in data set [15] (50 µM, 48 h), the “Reduction of H9N2 viral titers” value was found to be 2.6 logs. The “Inhibition of CYP2D6 activity” value in data set [16] is reported as “No significant CYP inhibitory potential”. In addition, the “Treatment time after which significant conversion was seen” value in data set [17] was 60 to 120 min. In addition, the “Inhibition of beagle dog CYP1A2” value in [18] was “no significant inhibition”.

Regarding `COc1ccc(-c2cccc(S(=O)(=O)N[C@@H](Cc3cccc(C(=N)N)c3)C(=O)N3CCC(NC(=O)NC(C)(C)C)CC3)c2)c(OC)c1` [MI-485], in [3], the “Effect on CYP3A4 enzyme activity” value is reported as “significant inhibitory effect” and the “Effect on CYP3A4 enzyme activity at the lowest applied concentration” value was “potent inhibitors”. Moreover, in data set [19], the “Inhibition of CYP1A2 activity” value was “No significant CYP inhibitory potential”. In data set [4], the “Parent compound retained” value is 64.9 ± 5.3% and the “Sampling interval at which significant depletion was first observed” value is 30 min. Moreover, in data set [5], the half-life at 10 µM came out at 2.86 h and the CLint scaled at 10 µM turned out to be 1.6 L/h/kg. For the same compound, the “Inhibition of CYP2C9 activity” value in [20] is reported as “No significant CYP inhibitory potential”. For the same compound, the “Inhibition of CYP2D6 activity” value in [21] is reported as “No significant CYP inhibitory potential”. In data set [22], the “Inhibition of CYP2C19 activity” value is on record as “No significant CYP inhibitory potential”. In data set [14], the “Classification (extraction type)” value is “Intermediate”; the “Extraction ratio EH” value is given as 0.39; the “Predicted Cl, CLH” value is reported as 8.17. Further, the “Effect on H9N2 virus propagation” value in data set [23] was “most pronounced reduction”. Besides, the “Treatment time after which significant conversion was seen” value in data set [17] is 60 to 120 min.

With `CC(C)(C)NC(=O)NC1CCN(C(=O)[C@H](Cc2cccc(C(=N)N)c2)NS(=O)(=O)c2cccc(-c3ccc(CO)cc3)c2)CC1` [MI-1903], the “Effect on CYP3A4 enzyme activity” value in data set [3] is “significant inhibitory effect”. Further, in data set [19], the “Inhibition of CYP1A2 activity” value is “No significant CYP inhibitory potential”. The compound further registered a CLint in [4] (intrinsic clearance from primary human hepatocytes scaled to whole liver/body weight) of 6.0618 L/h/kg. For the same compound, in data set [4], the “Parent compound retained” value came to 38.6 ± 5.5% and the “Sampling interval at which significant depletion was first observed” value is 30 min. In [5], this compound gave a half-life at 10 µM of 0.753 h and an intrinsic metabolic clearance (CLint scaled) at 10 µM of 6.06 L/h/kg. For the same compound, the “H9N2 viral spread / formation” value in [6] (MOI 0.01, 50 µM) is “only slightly reduced formation of viral foci”. Further, the “Inhibition of CYP2C9 activity” value in data set [20] was “No significant CYP inhibitory potential”. Moreover, the “Inhibition of CYP2D6 activity” value in [21] was “No significant CYP inhibitory potential”. Besides, the “Inhibition of CYP2C19 activity” value in [22] is reported as “No significant CYP inhibitory potential”. In [14], the “Classification (extraction type)” value is recorded as “Intermediate”; the “Extraction ratio EH” value is reported as 0.51; the “Predicted Cl, CLH” value was 10.56.

Regarding `CC(C)(C)NC(=O)NC1CCN(C(=O)[C@H](Cc2cccc(C(=N)N)c2)NS(=O)(=O)c2cccc(-c3ccc(CO)c(F)c3)c2)CC1` [MI-1904], the “Effect on CYP3A4 enzyme activity” value in [3] is on record as “significant inhibitory effect”. Moreover, in data set [19], the “Inhibition of CYP1A2 activity” value was “No significant CYP inhibitory potential”. In data set [4], the “Parent compound retained” value was 70.8 ± 8.6% and the “Sampling interval at which significant depletion was first observed” value was determined as 120 min. In data set [5], this compound registered a half-life at 10 µM of 3.99 h and an intrinsic clearance (CLint scaled) at 10 µM of 1.15 L/h/kg. The “Inhibition of CYP2C9 activity” value in data set [20] is given as “No significant CYP inhibitory potential”. In addition, the “Inhibition of CYP2D6 activity” value in data set [21] was “No significant CYP inhibitory potential”. Also, the “Inhibition of CYP2C19 activity” value in [22] is “No significant CYP inhibitory potential”. For the same compound, in data set [14], the “Classification (extraction type)” value is on record as “Intermediate”; the “Extraction ratio EH” value is given as 0.35; the “Predicted Cl, CLH” value is given as 7.29. Further, in data set [23], the “Effect on H9N2 virus propagation” value is recorded as “most pronounced reduction”.

In the case of `C=C[C@H]1C[N@@]2CC[C@H]1C[C@@H]2[C@@H](O)c1ccnc2ccc(OC)cc12` [quinidine, reference compound], the “Inhibition of CYP2D6 activity by reference inhibitor” value in [21] (3 µM, p < 0.001) is reported as “significantly suppressed”.
